# How the values were obtained:
# [1] = test system: BJ cells; experiment: Reprogramming of human fibroblasts scored by TRA-1-60+ colonies/clusters; assay type: cell-based
# Protocol: Briefly (FIG. 1A), 2×10^4 of BJ cells were seeded in each well of a 24-well plates. The second day, fibroblasts were transduced with OCT4 (10 MOI), SOX2 (5 MOI), KLF4 (5 MOI) along with 250 μl of individual kinase viral supernatant freshly packaged in one well of a 6-well plate. Twenty-two cDNAs were evaluated in one 24-well plate. One well is OSK control, and one well of cells is transduced with OSK plus 250 μl of GFP viral supernatant as a second control. Virus was removed next day with fresh fibroblast medium. Forty-eight hours after transduction, fibroblasts were transferred from one well into a 60-mm dish for continued reprogramming. The next day of re-seeding, fibroblast medium was replaced with E7 medium (E8 minus TGF beta) plus 100 μM of sodium butyrate. From day 18 of reprogramming on, E8 media was used. On day 25 of reprogramming, reprogramming dishes were stained for ALP or TRA-1-60 markers.
# • Concentration of virus: The reprogramming viruses (OCT4, SOX2, KLF4, MYC and BET members) were concentrated before use except for library viruses. The lentiviral supernatant was centrifuged at 3,000×g for 10 mins at 4° C. to remove the cell debris. Thirty ml of the viral supernatant was then transferred into each 50-ml tube. 7 ml of 50% PEG-6000 stock solution (final concentration of 8.5%) and 4.1 ml of 4 M NaCl stock solution was added to each tube (final concentration of 0.4 M). The virus mixture was stored at 4° C. for 3-5 h.
# • Cell culture and reprogramming: Human fibroblast cells (BJ ATCC CRL-2522®) were cultured in fibroblast medium: DMEM, 10% heat-inactivated FBS, 0.1 mM 2-mercaptoethanol, 100 U/ml penicillin, 100 μg/ml streptomycin, 0.1 mM MEM NEAA and 4 ng/ml human bFGF. For reprogramming, seed BJ cells into 24-well plate at 2×10^4 cells/well. Twenty-four hours after plating, pre-mix the OSK (OCT4, 10 MOI; SOX2, 5 MOI and KLF4, 5 MOI) viruses (shown in FIGS. 6B-6D, SEQ ID NO: 58-60, respectively), and add the OSK virus along with 250 μl supernatant of individual kinase virus into respective wells. Incubate overnight. Next morning, remove viruses by replacing virus-containing medium with fresh fibroblast medium. Twenty-four hours after transduction, the cells were re-seeded from one well into one matrigel-coated 60-mm dish. Next day, replace fibroblast medium with reprogramming media (E7 plus sodium butyrate at 100 μM). On 18 day, start to use E8 media. On day 25 of reprogramming, stain the reprogramming cells for alkaline phosphatase or TRA-1-60.
# [2] = test system: BJ cells; experiment: Quantification of ESC-like (high-quality PSC morphology) colonies in reprogramming; assay type: cell-based, human; conditions: BRD3R reprogramming vs control reprogramming
# From the text: When combined with the 3F combination (OCT4, SOX2 and KLF4), BRD3R gave rise to abundant TRA-1-60^+ clusters as early as day 6, whereas such clusters were infrequent events before day 10 in the control reprogramming (3F alone and 3F-GFP) (FIGS. 8A and 8E). On day 10, TRA-1-60^+ cells in BRD3R dishes developed into colonies while controls contained only small clusters of TRA-1-60^+ cells (FIG. 8E). The number of high-quality PSC colonies was also compared (well-defined colony border, homogeneous iPSCs within each reprogramming colony, smooth colony surface, and typical morphology of pluripotent cells (small cells, large nucleus, and close cell contact)), BRD3R reprogramming gave rise to at least 57× more colonies with PSC morphology than controls (FIGS. 9A and 9B). In addition, the iPSC colonies generally were larger in BRD3R dishes than in the control dishes (FIG. 1E, and FIGS. 8C, 8E, 9B, and 12C).
# • Cell culture and reprogramming: Human fibroblast cells (BJ ATCC CRL-2522®) were cultured in fibroblast medium: DMEM, 10% heat-inactivated FBS, 0.1 mM 2-mercaptoethanol, 100 U/ml penicillin, 100 μg/ml streptomycin, 0.1 mM MEM NEAA and 4 ng/ml human bFGF. For reprogramming, seed BJ cells into 24-well plate at 2×10^4 cells/well. […]
# [3] = test system: reprogramming cells; experiment: Mitotic shake-off of reprogramming cells; assay type: cell-based, human; conditions: day-4 reprogramming cells
# Protocol: • Mitotic shake-off: Reprogramming cells were prepared in T75 flasks. On day 4 of reprogramming, 1 h before mitotic shake-off, replace spent media with fresh reprogramming media. Shake the flasks at 200 rpm for 1 min and collect the media containing the shake-off mitotic cells. Add new warmed media and incubate for 10 min. Repeat these shake-off collection 2 more times. Pool the cells and centrifuge at 1,000×g for 5 min. Count the cells collected.
# [4] = test system: reprogramming cells; experiment: Cell cycle analysis by flow cytometry of reprogramming cells; assay type: cell-based, human; conditions: day 6 of reprogramming, compared to controls
# Protocol: • Cell Cycle Analysis: Harvest cells by trypsin solution. Fix cell with 70% cold ethanol overnight at 4° C. The next day, wash cells with PBS. Treat cells with 0.2 mg/ml RNase A in PBS containing 0.1% Triton X-100 at 37° C. for 1 h. Add PI at a final concentration of 10 μg/ml. Keep the cells in dark and at 4° C. until analysis. Analyze on BD LSRFortessa. Percentage of cells at each cell cycle phases was determined with Watson (pragmatic) (Watson et al., (1987) Cytometry 8: 1-8) and Dean-Jett-Fox (Fox M. H. (1980) Cytometry 1: 71-77) models on FlowJow.
# [5] = test system: reprogramming cells; experiment: Senescence analysis (SA-β-galactosidase staining) of reprogramming cells; assay type: cell-based, human; conditions: early stages of reprogramming (day 5)
# From the text: • Senescence analysis: Prepare reprogramming cells as stated in the reprogramming section. At day 5 of reprogramming, stain cells for endogenous p-galactosidase using the Cell Senescence Kit (Cell Signaling Technology, #9860s) per manufacturer's instruction. Count the β-galactosidase^+ cells in 10 randomly selected fields in each treated groups. The total cells were counted based on DAPI staining.
substance,measurement,setting,value
"BRD3R: BRD3 with Reprogramming activity; 556 aa isoform of human BRD3 (AAH32124, SEQ ID NO: 47), encoded by cDNA L61",appearance of abundant TRA-1-60+ clusters,"[1]; combined with 3F (OCT4, SOX2, KLF4), controls infrequent before day 10",6 days
same,reprogramming activity (TRA-1-60+ colonies),"[1]; used with 3F in BJ cells, compared to OSK-GFP control",more TRA-1-60^+ colonies
same,more colonies with PSC morphology than controls,[2],at least 57 ×
same,mitotic cells collected compared to controls,[3],2.43 ×
same,number of cells in G1,[4],statistically reduced
same,population of cells in G2/M phases,[4],statistically increased
same,cell senescence (SA-β-galactosidase staining),[5],Reduced cell senescence

# Reference: US20180163180A1, “METHOD OF ENHANCING SOMATIC CELL REPROGRAMMING WITH THE ACETYLLYSINE READER BRD3R” (THE UAB RESEARCH FOUNDATION, INC ., priority 2015, published 2018)
